We go through 53 molecules from PubChem BioAssay AID1996.

In brackets after ≈: the same amount, converted by molar mass. Where only a bound is given, the exact number is not on record here.

The conditions of the data set: buffer; pH 7.4; 200.0 µM.
By solubility (kinetic) is commonly meant solubility judged after dilution from a stock solution rather than from solid. In turn, `COCCCNc1oc(/C=C/c2ccccc2)nc1C#N` registered a solubility (kinetic) of 3.7 µg/mL (≈ 13.1 µM).

Take `CC(OC(=O)Cc1ccc(Br)cc1)C(=O)NC1CCCC1` (stereo not drawn): the solubility (kinetic) was 48.7 µg/mL (≈ 137 µM).

As to `O=C(Nc1ccc(Cl)cc1)c1ccc2ncsc2c1`, the solubility (kinetic) worked out at 3.1 µg/mL (≈ 10.7 µM).

Take `COc1ccc(CCNC(=O)COC(=O)c2cc(S(=O)(=O)N3CCOCC3)ccc2C)cc1OC`: the solubility (kinetic) is over 76 µg/mL.

As to `CCN(CC)C(=O)Oc1ccc(Cl)c2cccnc12`, the solubility (kinetic) amounted to 40.7 µg/mL (≈ 146 µM).

Molecule `N#CCSc1nc(-c2ccccc2)nc2ccccc12` gave a solubility (kinetic) of under 0.2 µg/mL.

`Cc1c(C(=O)NCc2ccco2)oc2ccccc12` came in with a solubility (kinetic) of 6.3 µg/mL (≈ 24.7 µM).

In turn, `C=CCn1c(=S)[nH]c2cc(-c3ccccc3)sc2c1=O` came in with a solubility (kinetic) of under 0.3 µg/mL.

`CC(=O)N1CCN=C1SCc1cccc(F)c1` gave a solubility (kinetic) of 36.5 µg/mL (≈ 145 µM).

Molecule `COC(=O)[C@@H](N)CCCN=C(N)N[N+](=O)[O-].Cl` registered a solubility (kinetic) of over 40.5 µg/mL.

As to `COc1cccc(CNc2ccccn2)c1O`, the kinetic solubility is over 34.5 µg/mL.

For the molecule `Cc1ccc(S(=O)(=O)CC(=O)NCc2ccccc2)cc1`, the solubility (kinetic) stood at 29.7 µg/mL (≈ 97.9 µM).

`Cc1ccc(NC(=O)CCn2c(=S)oc3ccccc32)cc1F` yielded a solubility (kinetic) of under 0.4 µg/mL.

Regarding `COc1ccc(NC(=O)CSc2nc3ccc(OC)cc3[nH]2)cc1`, the kinetic solubility worked out at 6 µg/mL (≈ 17.5 µM).

The molecule `COc1ccccc1CNC(=O)COC(=O)c1ccccn1` gave a solubility (kinetic) of over 45 µg/mL.

The molecule `CC(=O)Nc1ccc2oc(-c3ccccc3)nc2c1` returned a kinetic solubility of 13.1 µg/mL (≈ 51.9 µM).

`CC(C)CNc1nc(N)c([N+](=O)[O-])c(NC2CCCCC2)n1` registered a solubility (kinetic) of under 0.1 µg/mL.

`COc1ccc(S(=O)(=O)NC2CCc3ccccc32)cc1OC` (stereo not drawn) came in with a kinetic solubility of over 50 µg/mL.

`CCOC(=O)c1cc(C(=O)NC(C)c2ccccc2)c(=O)[nH]c1C` (stereo not drawn) showed a solubility (kinetic) of 1.6 µg/mL (≈ 4.87 µM).

For `Cc1nc(C)c(/C(O)=C\c2nc3ccc([N+](=O)[O-])cc3oc2=O)o1`, the solubility (kinetic) is over 49.4 µg/mL.

On to `COCCCNC(=S)Nc1cc(C)c(C)cc1C`, for which the solubility (kinetic) was over 40 µg/mL.

For `Cl.O=[N+]([O-])c1ccccc1OCCCN1CCc2ccccc2C1`, the kinetic solubility is over 52.3 µg/mL.

Molecule `NS(=O)(=O)c1ccc(NC(=O)c2c(F)cccc2Cl)cc1` registered a solubility (kinetic) of 13.3 µg/mL (≈ 40.5 µM).

Molecule `O=C(Cc1ccc(Br)cc1)Nc1nc2ccccc2[nH]1` came in with a solubility (kinetic) of 2.4 µg/mL (≈ 7.27 µM).

`CC(C)(C)C(=O)N(Cc1ccc(Cl)cc1)c1cnccn1`: the solubility (kinetic) was over 45.6 µg/mL.

As for `COc1ccccc1-n1cnc2cc(NCc3ccccc3O)ccc21`, the solubility (kinetic) worked out at 12.6 µg/mL (≈ 36.5 µM).

Molecule `Cc1ccc(NC(=O)CN2CCN(Cc3ccccc3)CC2)cc1F` returned a solubility (kinetic) of 42.8 µg/mL (≈ 125 µM).

`Cc1nc(NC(=O)c2ccncc2)sc1C(=O)N(C)C` came in with a solubility (kinetic) of over 43.6 µg/mL.

`CC(CCc1ccccc1)NC(=O)CN1CCSc2ccccc21` (stereo not drawn) yielded a solubility (kinetic) of 20.1 µg/mL (≈ 59 µM).

With `CN1CCN(S(=O)(=O)c2ccc(NC(=O)c3cccc(F)c3)cc2)CC1`, the solubility (kinetic) was over 56.6 µg/mL.

`CCc1nnc(NC(=O)CCC(=O)NC2CC2)s1` returned a solubility (kinetic) of over 40.2 µg/mL.

`Cc1ccccc1C(=O)NCCNC(=O)c1cnccn1` had a solubility (kinetic) of 35.7 µg/mL (≈ 126 µM).

Consider `Cc1c(C)n(CCCN(C)C)c2ncnc(Nc3ccccc3)c12`, for which the solubility (kinetic) is over 48.5 µg/mL.

Take `CCCCNC(=O)C1(NC(=O)Nc2ccccc2)CCCCC1`: the kinetic solubility came to 5.5 µg/mL (≈ 17.3 µM).

In the case of `CCNCCC(CCC(C)C)c1ccc2c(c1)OCO2` (stereo not drawn), the kinetic solubility turned out to be 33.7 µg/mL (≈ 121 µM).

Turning to `O=C(NCCCN1CCCC1=O)Nc1ccc(Cl)cc1Cl`, the solubility (kinetic) is over 49.5 µg/mL.

`Fc1ccc2nc(N3CCCC3)sc2c1` came in with a kinetic solubility of 15.6 µg/mL (≈ 70.2 µM).

As to `O=c1cc(COc2ccccc2[N+](=O)[O-])nc2sccn12`, the solubility (kinetic) came out at 2.7 µg/mL (≈ 8.9 µM).

For the molecule `CN1C(=O)c2ccccc2N(C)C1c1ccccc1Cl` (stereo not drawn), the solubility (kinetic) is over 43 µg/mL.

In turn, `COc1ccc(CCN(C)C/C=C/c2ccccc2)cc1OC` had a solubility (kinetic) of 30.1 µg/mL (≈ 96.7 µM).

Take `Nc1cccc([N+](=O)[O-])c1`: the solubility (kinetic) was determined as 16.7 µg/mL (≈ 121 µM). This solubility kinetic is about 1.8-fold lower than that of the molecule before.

On to `Cc1cc(SCc2ccc(C(F)(F)F)cc2)nc(=O)[nH]1`, for which the solubility (kinetic) stood at 7.5 µg/mL (≈ 25 µM).

`COc1ccc(OC)c(N2C(=O)c3cccnc3C2=O)c1` showed a kinetic solubility of over 42.6 µg/mL.

For the molecule `CCCSc1ncccc1C(=O)O`, the kinetic solubility was over 29.6 µg/mL.

`CCOC(=O)CSc1nc(-c2ccccc2)ns1` gave a kinetic solubility of 6.3 µg/mL (≈ 22.5 µM).

For `CC(C)(C)c1cc(NC(=O)Nc2ccccc2)no1`, the kinetic solubility is 4.1 µg/mL (≈ 15.8 µM). Compared with the last molecule, the solubility kinetic is about 1.5-fold lower.

`CCc1ccc(C(C)NC(=O)c2cccs2)cc1` (stereo not drawn) showed a kinetic solubility of 9 µg/mL (≈ 34.7 µM). This solubility kinetic lies about 2.2-fold higher than the previous one.

Molecule `Cc1ccnc(SC2CC(=O)N(c3ccc(F)cc3)C2=O)n1` (stereo not drawn) registered a solubility (kinetic) of 38 µg/mL (≈ 120 µM).

The molecule `COc1ccc2c(c1)[nH]c1c(=O)n(CCN3CCOCC3)cnc12` yielded a kinetic solubility of 47.6 µg/mL (≈ 145 µM).

The molecule `Cc1ccc(Sc2ncccc2C(N)=O)cc1` showed a solubility (kinetic) of over 36.6 µg/mL.

Molecule `O=C(Nc1ccc(N2CCOCC2)cc1)c1cnccn1` came in with a kinetic solubility of over 42.6 µg/mL.

With `CC(C)(C)Nc1nc(-c2ccccn2)nc2ccccc12`, the kinetic solubility was over 41.8 µg/mL.

In turn, `Cc1c(/C=C(\CC(=O)O)c2nc3ccccc3s2)cc(C#N)n1C` displayed a kinetic solubility of 44.6 µg/mL (≈ 132 µM).
